Holding throughout (assay type): cell-based
In assay [1] the test system is B16F10 (malignant melanoma). The experiment in a line: Antiproliferative activity, CCK-8 cell viability. The note with it: Mus musculus, B16-F10, 72 h, read-out: Inhibition of Cancerous Cells, B16F10; for inhibition at 3.3 µM: compound concentration of 3.3 μM; for inhibition at 10 µM: compound concentration of 10 μM; for inhibition at 30 µM: compound concentration of 30 μM. The essentials: (§1)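 Cells in DMEM with 10% FBS were treated with compound at 3.3, 10 or 30 μM for 72 h at 37°C. Viability was read by CCK-8 absorbance at 450 nm and expressed relative to DMSO-treated cells. Growth inhibition was binned as ≥50%, 30–50% or <30%.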

In assay [2] the test system is HeLa (cervical cancer). The experiment in a line: Antiproliferative activity, CCK-8 cell viability. Particulars: Homo sapiens, 72 h, read-out: Inhibition of Cancerous Cells, HELA; for inhibition at 3.3 µM: compound concentration of 3.3 μM; for inhibition at 10 µM: compound concentration of 10 μM; for inhibition at 30 µM: compound concentration of 30 μM.
Assay [3] relates to A549 (lung adenocarcinoma). The experiment in a line: Antiproliferative activity, CCK-8 cell viability. The note with it: Homo sapiens, 72 h, read-out: Inhibition of Cancerous Cells, A549; for inhibition at 3.3 µM: compound concentration of 3.3 μM; for inhibition at 10 µM: compound concentration of 10 μM; for inhibition at 30 µM: compound concentration of 30 μM.
Assay [4] has as its system SW480 (colon cancer). The experiment in a line: Antiproliferative activity, CCK-8 cell viability. Particulars: Homo sapiens, 72 h, read-out: Inhibition of Cancerous Cells, SW480; for inhibition at 3.3 µM: compound concentration of 3.3 μM; for inhibition at 10 µM: compound concentration of 10 μM; for inhibition at 30 µM: compound concentration of 30 μM. In a few lines: as §1

The test system of assay [5] is A431 (epidermoid carcinoma). The experiment in a line: Antiproliferative activity, CCK-8 cell viability. The note with it: Homo sapiens, A-431, 72 h, read-out: Inhibition of Cancerous Cells, A431; for inhibition at 3.3 µM: compound concentration of 3.3 μM; for inhibition at 10 µM: compound concentration of 10 μM; for inhibition at 30 µM: compound concentration of 30 μM. The essentials: as §1

The test system of assay [6] is HepG2 (liver cancer). The experiment in a line: Antiproliferative activity, CCK-8 cell viability. The note with it: Homo sapiens, 72 h, read-out: Inhibition of Cancerous Cells, HepG2; for inhibition at 3.3 µM: compound concentration of 3.3 μM; for inhibition at 10 µM: compound concentration of 10 μM; for inhibition at 30 µM: compound concentration of 30 μM. The essentials:
as §1

Assay [7] deals with MDA-MB-231 (breast cancer). The experiment in a line: Antiproliferative activity, CCK-8 cell viability. The note with it: Homo sapiens, 72 h, read-out: Inhibition of Cancerous Cells, MDA-MB-231; for inhibition at 3.3 µM: compound concentration of 3.3 μM; for inhibition at 10 µM: compound concentration of 10 μM; for inhibition at 30 µM: compound concentration of 30 μM. The essentials:
as §1

Assay [8] concerns alpha-smooth muscle actin (α-SMA). The experiment in a line: Inhibition of TGF-β induced expression of alpha-smooth muscle actin in CFSC cells (western blot). Particulars: compound at 10 μM, TGF-β (10 ng/mL), 24 hours. In a few lines:
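Rat CCl4-treated hepatic stellate (CFSC) cells in serum-free DMEM were given compound at 10 μM plus TGF-β 10 ng/mL for 24 h at 37 °C. α-SMA measured by western blot with β-actin, bands quantified densitometrically. Percent inhibition is the decrease in band intensity versus TGF-β alone.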

SMILES strings stand for the structures.

What is called inhibition is the share of the control response that was lost under treatment. `CC1=C(CC(=O)O)c2cc(F)ccc2/C1=C\c1cccc(COc2ccc(F)c(F)c2)c1` [Compound A20, 2-[(1Z)-1-({3-[(3,4-Difluorophenoxy)methyl]phenyl}methylidene)-5-fluoro-2-methyl-1H-inden-3-yl]acetic acid]: the inhibition at 3.3 µM in assay [1] is 30 to 50%; in assay [2] it was 30 to 50%; in assay [3], under 30%; in assay [4] it was under 30%; in assay [5] it was at least 50%; in assay [6] it was at least 50%. Besides, the inhibition at 3.3 µM in assay [7] was at least 50%. The inhibition at 10 µM in assay [1] is 30 to 50%; in assay [2], 30 to 50%; in assay [3] it was 30 to 50%; in assay [4] it was 30 to 50%; in assay [5], at least 50%; in assay [6] it was at least 50%. For the same compound, the values for the inhibition at 10 µM in assay [7] and in assay [8] were at least 50% and at least 80%, respectively. In addition, the inhibition at 30 µM in assay [1], in assay [2], in assay [3], in assay [4], in assay [5] and in assay [6] was at least 50% each time. Also, the inhibition at 30 µM in assay [7] is at least 50%.
Turning to `CC1=C(CC(=O)O)c2cc(F)ccc2/C1=C\c1cccc(COc2ccc(C(F)(F)F)cc2)c1` [Compound A21, 2-[(1Z)-5-Fluoro-2-methyl-1-[(3-{[4-(trifluoromethyl)phenoxy]methyl}phenyl)-methylidene]-1H-inden-3-yl]acetic acid], the inhibition at 3.3 µM was at least 50% in assay [1]; 30 to 50% in assay [2]; 30 to 50% in assay [3]; at least 50% in assay [4]; 30 to 50% in assay [5]; 30 to 50% in assay [6]. For the same compound, in assay [7], the inhibition at 3.3 µM is at least 50%. The inhibition at 10 µM in assay [1] is at least 50%; in assay [2], 30 to 50%; in assay [3] it was 30 to 50%; in assay [4], at least 50%; in assay [5] it was at least 50%; in assay [6], 30 to 50%. Besides, the inhibition at 10 µM in assay [7] is at least 50%; in assay [8] it was under 30%. In addition, the inhibition at 30 µM in assay [1], in assay [2], in assay [3], in assay [4], in assay [5] and in assay [6] was at least 50% each time. Moreover, in assay [7], the inhibition at 30 µM was at least 50%.
Take `CC1=C(CC(=O)O)c2cc(F)ccc2/C1=C\c1cccc(COc2ccc(C(C)(C)C)cc2)c1` [Compound A22, 2-[(1Z)-1-({3-[(4-Tert-butylphenoxy)methyl]phenyl}methylidene)-5-fluoro-2-methyl-1H-inden-3-yl]acetic acid]: the inhibition at 3.3 µM is at least 50% in assay [1]; under 30% in assay [2]; under 30% in assay [3]; 30 to 50% in assay [4]; at least 50% in assay [5]; 30 to 50% in assay [6]. For the same compound, the inhibition at 3.3 µM in assay [7] was at least 50%. The inhibition at 10 µM in assay [1] was at least 50%; in assay [2], under 30%; in assay [3] it was 30 to 50%; in assay [4], at least 50%; in assay [5] it was at least 50%; in assay [6], at least 50%. Also, the inhibition at 10 µM was at least 50% in assay [7] and at least 80% in assay [8]. For the same compound, the inhibition at 30 µM in assay [1], in assay [2], in assay [3], in assay [4], in assay [5] and in assay [6] was at least 50% throughout. Further, the inhibition at 30 µM in assay [7] was at least 50%.
As to `CC1=C(CC(=O)N(C)O)c2cc(F)ccc2/C1=C\c1ccc(Oc2ccccc2)cc1` [Compound B1, 2-[(1Z)-5-Fluoro-2-methyl-1-[(4-phenoxyphenyl)methylidene]-1H-inden-3-yl]-N-hydroxy-N-methylacetamide], the inhibition at 3.3 µM in assay [1] is at least 50%; in assay [2] it was 30 to 50%; in assay [3], at least 50%; in assay [4], at least 50%; in assay [5] it was at least 50%; in assay [6] it was under 30%. Besides, the inhibition at 3.3 µM in assay [7] was at least 50%. Further, the inhibition at 10 µM in assay [1] was at least 50%; in assay [2], at least 50%; in assay [3], at least 50%; in assay [4], at least 50%; in assay [5] it was at least 50%; in assay [6], 30 to 50%. Moreover, the figures for the inhibition at 10 µM in assay [7] and in assay [8] were at least 50% and 50 to 80%, respectively. The inhibition at 30 µM in assay [1], in assay [2], in assay [3], in assay [4], in assay [5] and in assay [6] was at least 50% each time. The inhibition at 30 µM in assay [7] was at least 50%.
Take `CC1=C(CC(=O)N(C)O)c2cc(F)ccc2/C1=C\c1ccc(Oc2ccc(F)cc2)cc1` [Compound B2, 2-[(1Z)-5-Fluoro-1-{[4-(4-fluorophenoxy)phenyl]methylidene}-2-methyl-1H-inden-3-yl]-N-hydroxy-N-methylacetamide]: the inhibition at 3.3 µM in assay [1] was at least 50%; in assay [2], 30 to 50%; in assay [3], at least 50%; in assay [4], at least 50%; in assay [5], at least 50%; in assay [6] it was under 30%. Besides, in assay [7], the inhibition at 3.3 µM was at least 50%. Further, the inhibition at 10 µM in assay [1] is at least 50%; in assay [2], 30 to 50%; in assay [3] it was at least 50%; in assay [4], at least 50%; in assay [5], at least 50%; in assay [6], 30 to 50%. In addition, the results for the inhibition at 10 µM in assay [7] and in assay [8] were at least 50% and at least 80%, respectively. In addition, the inhibition at 30 µM in assay [1], in assay [2], in assay [3], in assay [4], in assay [5] and in assay [6] was at least 50% in each case. Moreover, in assay [7], the inhibition at 30 µM is at least 50%.

Source of the values: US20240116845A1, “INDENE COMPOUNDS, PHARMACEUTICAL COMPOSITIONS THEREOF, AND THEIR THERAPEUTIC APPLICATIONS” (NucMito Pharmaceuticals Co., Ltd., priority 2021, published 2024).
